Data on two compounds can be found in patent publication US20240188571A1, “EMULSIFIABLE CONCENTRATE COMPOSITION AS WOOD PROTECTANT AND FOR TERMITE AND FUNGAL PATHOGENS CONTROL APPLICATIONS” (priority 2021, published 2024).

One series relates to decay fungi. The series can be described thus: Protection of wood from decay fungi, Marandi wood blocks kept in open space for one year. As to conditions: Marandi wood blocks sprayed, untreated control infested by Fusarium oxysporum. An excerpt: Blocks of Marandi wood of size 30×15×4 cm (L×B×W) were taken for the experiment. The emulsion of cedar wood oil emulsifiable concentrate formulation in water was sprayed on two replicates of wooden blocks using a band sprayer. No emulsion was applied on untreated control. Market sample of Propiconazole was used as standard check for comparing the effect of this botanical cedar wood oil emulsifiable concentrate formulation. The blocks after application and untreated control were kept in open space for a period of one year starting from the month of November up to the month of October to subject the blocks to winter, summer and rainy season. Observations on the wooden blocks were taken to check the infestation of fungi and damage caused by fungi.

Series [1] deals with termite, Odontotermes sp. In words: Topical (direct contact toxicity) assay against termites, planar arena. In kind it is in vivo. The settings on record: 25 ml/lit., after 24 hours, mean of five replications. As to the method:
(§1) The formulation was evaluated under laboratory conditions following standard protocols for its contact and surface toxicity, against termite, Odontotermes sp. to simulate real field conditions. In the topical (direct contact toxicity) assay, the bio-termiticide was sprayed directly on the termites and mortality (death), repellence (moving away) or anti-feedant (non-feeding) effects were studied. This assay was carried out in simulation of curative management viz., post-infestation management. In the surface toxicity assay the surface on which the termites walk over was sprayed, termites were allowed to move on the treated surface later and mortality (death), repellence (moving a way) or anti-feedant (non-feeding) effects were studied. This assay was carried out in simulation of preventive management viz., pre-infestation management. These two methods were planned as they suffice the current needs of pre- and post-infestation termite management.
(§2) Both the topical and surface toxicity bioassays were carried out using planar arena assay method (Chouvenc et al. 20112011, Planar Arenas for Use in Laboratory Bioassay Studies of Subterranean Termites (Rhinotermitidae). Florida Entomologist, 94(4): 817-826) with minor modifications. Seven concentrations of the cedar wood oil Emulsifiable concentrate formulation, standard check Chlorpyriphos and untreated control were used in the bioassay. […]

For series [2], the system named is termite, Odontotermes sp. In words: Surface toxicity assay against termites, planar arena. In kind it is in vivo. As to conditions: 25 ml/lit., termites released one hour after spraying, mean of five replications. As for the experimental part:
as §1, §2

Marks after values point to notes of the source that are not given here.

Regarding `CCCC1COC(Cn2cncn2)(c2ccc(Cl)cc2Cl)O1` (centres unmarked) [Propiconazole], in the series with decay fungi, the “infestation of fungi on treated wooden blocks” value was “No infestation of the fungi”.

Turning to `CCOP(=S)(OCC)Oc1nc(Cl)c(Cl)cc1Cl` [Chlorpyriphos], in series [1], the “Percent Mortality” value was 92 (73.57)^b Percent and the Percent repellence was 0 (0.29)^e Percent. Besides, in series [2], the “Percent Mortality” value is given as 80 (63.43)^b Percent and the Percent repellence is 4 (11.54)^e Percent.
